Where a SMILES comes first, the peptide text is derived from it. [ ]: non-standard residue; d: D form. The star is where a group is joined. NH(CH2)3NH(1-anthraquinonyl) = O=C1c2ccccc2C(=O)c2c(NCCCN*)cccc21; Nle = CCCC[C@H](N)C(=O)O; Nva = CCC[C@H](N)C(=O)O; Mob = COc1ccc(C*)cc1
In the case of `CC(C)C[C@H](NC(=O)[C@H](C)N)C(=O)NCC(=O)N[C@@H](CC(C)C)C(=O)N1CCC[C@@H]1C(=O)NCCCNc1cccc2c1C(=O)c1ccccc1C2=O.O=C(O)C(F)(F)F`, the melting point is reported as 168 °C. `NCCCNc1cccc2c1C(=O)c1ccccc1C2=O` showed a melting point of 196 °C. Molecule `CSC[C@H](NC(=O)[C@H](C)NC(=O)[C@H](C)NC(=O)[C@@H](C)N)C(=O)NCC(=O)N[C@@H](CC(C)C)C(=O)N1CCC[C@H]1C(=O)NCCCNc1cccc2c1C(=O)c1ccccc1C2=O.O=C(O)C(F)(F)F` has a melting point of 191 °C. For `CCC[C@H](NC(=O)[C@H](C)NC(=O)[C@@H](C)N)C(=O)N[C@@H](CC(C)C)C(=O)NCC(=O)N[C@@H](CC(C)C)C(=O)N1CCC[C@H]1C(=O)NCCCNc1cccc2c1C(=O)c1ccccc1C2=O.O=C(O)C(F)(F)F`, the melting point was 174 to 178 °C. Molecule `CC(C)C[C@H](NC(=O)[C@H](C)NC(=O)[C@H](C)NC(=O)[C@H](N)CCCCN)C(=O)NCC(=O)N[C@@H](CC(C)C)C(=O)N1CCC[C@H]1C(=O)NCCCNc1cccc2c1C(=O)c1ccccc1C2=O.O=C(O)C(F)(F)F.O=C(O)C(F)(F)F` has a melting point of 196 °C. Work on `CCC[C@H](N)C(=O)N1CCC[C@H]1C(=O)NCCCNc1cccc2c1C(=O)c1ccccc1C2=O.O=C(O)C(F)(F)F` yielded a melting point of 190 to 194 °C. With `CCC[C@H](NC(=O)CN)C(=O)N1CCC[C@H]1C(=O)NCCCNc1cccc2c1C(=O)c1ccccc1C2=O.O=C(O)C(F)(F)F` the melting point was 196 °C. `CC(C)C[C@H](NC(=O)[C@H](C)N)C(=O)N1CCC[C@H]1C(=O)NCCCNc1cccc2c1C(=O)c1ccccc1C2=O.O=C(O)C(F)(F)F` showed a melting point of 170 to 174 °C. Work on `CC(C)C[C@H](NC(=O)[C@@H](N)Cc1ccccc1)C(=O)N1CCC[C@H]1C(=O)NCCCNc1cccc2c1C(=O)c1ccccc1C2=O.O=C(O)C(F)(F)F` yielded a melting point of 184 to 188 °C. For `CC(C)C[C@H](NC(=O)[C@@H](N)Cc1ccccc1)C(=O)NCC(=O)N1CCC[C@@H]1C(=O)NCCCNc1cccc2c1C(=O)c1ccccc1C2=O.O=C(O)C(F)(F)F`, the melting point was 170 °C. In the case of `CC(C)C[C@H](NC(=O)[C@H](Cc1ccccc1)NC(=O)CN)C(=O)NCC(=O)N1CCC[C@@H]1C(=O)NCCCNc1cccc2c1C(=O)c1ccccc1C2=O.O=C(O)C(F)(F)F`, the melting point is reported as 154 to 156 °C. Molecule `CC[C@H](C)[C@H](NC(=O)[C@@H](N)Cc1ccccc1)C(=O)NCC(=O)N[C@@H](Cc1ccccc1)C(=O)N1CCC[C@@H]1C(=O)NCCCNc1cccc2c1C(=O)c1ccccc1C2=O.O=C(O)C(F)(F)F` has a melting point of 130 to 134 °C. With `CSC[C@H](NC(=O)[C@H](C)NC(=O)[C@H](C)N)C(=O)NCC(=O)N[C@@H](CC(C)C)C(=O)N1CCC[C@H]1C(=O)NCCCNc1cccc2c1C(=O)c1ccccc1C2=O.O=C(O)C(F)(F)F` (H-AAC(Me)GLP-{NH(CH2)3NH(1-anthraquinonyl)}) the melting point was 162 °C. For `COc1ccc(CSC[C@H](NC(=O)[C@H](C)NC(=O)[C@H](C)N)C(=O)NCC(=O)N[C@@H](CC(C)C)C(=O)N2CCC[C@H]2C(=O)NCCCNc2cccc3c2C(=O)c2ccccc2C3=O)cc1.O=C(O)C(F)(F)F` (H-AAC(Mob)GLP-{NH(CH2)3NH(1-anthraquinonyl)}), the melting point was 182 °C. With `CCC[C@H](NC(=O)CNC(=O)[C@H](CC(C)C)NC(=O)[C@H](C)NC(=O)[C@H](C)N)C(=O)N1CCC[C@H]1C(=O)NCCCNc1cccc2c1C(=O)c1ccccc1C2=O.O=C(O)C(F)(F)F` (H-AALG[Nva]P-{NH(CH2)3NH(1-anthraquinonyl)}) the melting point was 188 °C. For `CCCC[C@H](NC(=O)[C@H](C)NC(=O)[C@H](C)N)C(=O)NCC(=O)N[C@@H](CC(C)C)C(=O)N1CCC[C@H]1C(=O)NCCCNc1cccc2c1C(=O)c1ccccc1C2=O.O=C(O)C(F)(F)F` (H-AA[Nle]GLP-{NH(CH2)3NH(1-anthraquinonyl)}), the melting point was 176 °C. For `CCC[C@H](NC(=O)[C@H](C)NC(=O)[C@H](C)N)C(=O)NCC(=O)N[C@@H](CC(C)C)C(=O)N1CCC[C@H]1C(=O)NCCCNc1cccc2c1C(=O)c1ccccc1C2=O.O=C(O)C(F)(F)F` (H-AA[Nva]GLP-{NH(CH2)3NH(1-anthraquinonyl)}), the melting point was 197 °C. In the case of `CC(C)C[C@H](NC(=O)CNC(=O)[C@H](C)N)C(=O)N[C@@H](C)C(=O)N[C@@H](CC(C)C)C(=O)N1CCC[C@H]1C(=O)NCCCNc1cccc2c1C(=O)c1ccccc1C2=O.O=C(O)C(F)(F)F` (H-AGLALP-{NH(CH2)3NH(1-anthraquinonyl)}), the melting point is reported as 185 °C. In the case of `CC(C)C[C@H](NC(=O)CNC(=O)[C@H](C)N)C(=O)N[C@@H](Cc1ccccc1)C(=O)N[C@@H](CC(C)C)C(=O)N1CCC[C@H]1C(=O)NCCCNc1cccc2c1C(=O)c1ccccc1C2=O.O=C(O)C(F)(F)F` (H-AGLFLP-{NH(CH2)3NH(1-anthraquinonyl)}), the melting point is reported as 186 °C. Molecule `CCC[C@H](NC(=O)CNC(=O)[C@H](CC(C)C)NC(=O)[C@H](C)N)C(=O)N1CCC[C@H]1C(=O)NCCCNc1cccc2c1C(=O)c1ccccc1C2=O.O=C(O)C(F)(F)F` (H-ALG[Nva]P-{NH(CH2)3NH(1-anthraquinonyl)}) has a melting point of 176 to 178 °C. Work on `CSC[C@H](NC(=O)[C@H](Cc1ccc(O)cc1)NC(=O)[C@H](C)N)C(=O)NCC(=O)N[C@@H](CC(C)C)C(=O)N1CCC[C@H]1C(=O)NCCCNc1cccc2c1C(=O)c1ccccc1C2=O.O=C(O)C(F)(F)F` (H-AYC(Me)GLP-{NH(CH2)3NH(1-anthraquinonyl)}) yielded a melting point of 166 to 170 °C. Molecule `CC(C)C[C@H](NC(=O)[C@H](Cc1ccc(O)cc1)NC(=O)[C@H](C)N)C(=O)NCC(=O)N[C@@H](CC(C)C)C(=O)N1CCC[C@H]1C(=O)NCCCNc1cccc2c1C(=O)c1ccccc1C2=O.O=C(O)C(F)(F)F` (H-AYLGLP-{NH(CH2)3NH(1-anthraquinonyl)}) has a melting point of 182 °C. Work on `CCC[C@H](NC(=O)[C@H](Cc1ccc(O)cc1)NC(=O)[C@H](C)N)C(=O)NCC(=O)N[C@@H](CC(C)C)C(=O)N1CCC[C@H]1C(=O)NCCCNc1cccc2c1C(=O)c1ccccc1C2=O.O=C(O)C(F)(F)F` (H-AY[Nva]GLP-{NH(CH2)3NH(1-anthraquinonyl)}) yielded a melting point of 182 °C. In the case of `CCCC[C@H](NC(=O)[C@H](C)N)C(=O)NCC(=O)N[C@@H](CC(C)C)C(=O)N1CCC[C@H]1C(=O)NCCCNc1cccc2c1C(=O)c1ccccc1C2=O.O=C(O)C(F)(F)F` (H-A[Nle]GLP-{NH(CH2)3NH(1-anthraquinonyl)}), the melting point is reported as 185 °C. `CCC[C@H](NC(=O)[C@H](C)N)C(=O)NCC(=O)N[C@@H](CC(C)C)C(=O)N1CCC[C@H]1C(=O)NCCCNc1cccc2c1C(=O)c1ccccc1C2=O.O=C(O)C(F)(F)F` (H-A[Nva]GLP-{NH(CH2)3NH(1-anthraquinonyl)}) showed a melting point of 198 °C. `CCC[C@H](NC(=O)[C@H](C)N)C(=O)N[C@@H](CC(C)C)C(=O)NCC(=O)N[C@@H](CC(C)C)C(=O)N1CCC[C@H]1C(=O)NCCCNc1cccc2c1C(=O)c1ccccc1C2=O.O=C(O)C(F)(F)F` (H-A[Nva]LGLP-{NH(CH2)3NH(1-anthraquinonyl)}) gave a melting point of 192 °C. Work on `COc1ccc(CSC[C@H](N)C(=O)NCC(=O)N[C@@H](CC(C)C)C(=O)N2CCC[C@H]2C(=O)NCCCNc2cccc3c2C(=O)c2ccccc2C3=O)cc1.O=C(O)C(F)(F)F` (H-C(Mob)GLP-{NH(CH2)3NH(1-anthraquinonyl)}) yielded a melting point of 182 °C. `CC(C)C[C@H](NC(=O)CN)C(=O)N[C@@H](C)C(=O)N[C@@H](CC(C)C)C(=O)N1CCC[C@H]1C(=O)NCCCNc1cccc2c1C(=O)c1ccccc1C2=O.O=C(O)C(F)(F)F` (H-GLALP-{NH(CH2)3NH(1-anthraquinonyl)}) gave a melting point of 192 to 194 °C.

— US20040248765A1, “Tumour targeting prodrugs activated by metallo matrixproteinases” (priority 2001, published 2004)
